Results on 13 molecules are retold here after patent US20260193250A1, “TOLL-LIKE RECEPTOR 7 AGONISTS AS IMMUNE-STIMULATORS TO ELICIT THE INNATE ANTITUMOR IMMUNITY” (Merck Patent GmbH, priority 2022, published 2026).

A value given as a limit tells only on which side of the number the result lay.

In this assay the test system is Peripheral blood mononuclear cells (PBMC). In words: TNFα secretion from PBMCs. The format is cell-based. As to conditions: human PBMCs, 18 hours incubation, MILLIPLEX bead panel. On the procedure: Peripheral blood mononuclear cells (PBMC) were isolated from healthy human volunteers and banked in liquid nitrogen. Vial of frozen PBMC was thawed in 37° C. water bath for no more than 2 minutes. The contents of the tube were aseptically transferred to pre-warmed complete media containing RPMI basal media (Gibco-21875034) supplemented with 10% HI-FBS (Aus origin) (Gibco-10100-147) and 1% penicillin/streptomycin (Gibco-15140-122-100 ml) followed by centrifugation. Cells were resuspended in complete media (3 ml) and counted using haemocytometer.
All selected compounds (Five benchmark and 15 example molecules) were prepared in 100% DMSO (Sigma-D2650) (10 mM stock). The compounds were serially diluted in 100% DMSO (4 fold) up to 8 point DRC in U-bottom 96 well plate (Cellstar-650180). 3 μl of this serially diluted DRC was mixed with 97 μl of completed media (1:33.33) as intermediate dilution (300 μM) 3% DMSO. 11 μl of compounds from intermediate dilution was added to the PBMC plate (1:10) such that final concentration of DMSO in the culture plate is 0.3% and starting concentration of the compounds is 30 μM. Resiquimod (30 μM) and DMSO (0.3%) were used as positive and negative controls respectively.
The plate was incubated at 37° C. with 5% CO2 for 18 hours. Post incubation, the plate was spun at 2000 rpm for 5 min and supernatant was gently aspired and collected in protein low binding V-bottom 96 well plates (Thermo Fisher-249944). The supernatant plates were sealed, labelled appropriately and stored at −80° C. till cytokine analysis (<1 month).
MILLIPLEX MAP Human Cytokine/Chemokine Magnetic Bead Panel kit (HCYTOMAG-60K) was used for measuring TNF alpha as per the kit's recommendation.
EC50 were determined using Graph Pad Prism Statistical software (Version 7.05), with individual data points represent the absorbance values of duplicates.

`CCOCc1nc2c(N)nc3ccccc3c2n1CC(C)(C)OCCCN1CCN(C)CC1` [Example 2] returned an EC50 of 100 to 1000 nM.
The result for `CCOCc1nc2c(N)nc3ccccc3c2n1CC(C)(C)OCCCCN1CCN(C)CC1` [Example 3] reads less than 100 nM; that for `CCOCc1nc2c(N)nc3ccccc3c2n1CC(C)(C)OCCCCCN1CCN(C)CC1` [Example 4], less than 100 nM; that for `CCOCc1nc2c(N)nc3ccccc3c2n1CC(C)(C)OCCCCN1CCOCC1` [Example 7], 100 to 1000 nM.
The result for `CCOCc1nc2c(N)nc3ccccc3c2n1CC(C)(C)OCCCCN1CCCCC1` [Example 8] reads 1000 to 10000 nM; that for `CCOCc1nc2c(N)nc3ccccc3c2n1CC(C)(C)OCCCCN1CCCC1` [Example 9], more than 10000 nM; that for `CCOCc1nc2c(N)nc3ccccc3c2n1CC(C)(C)OCCCCN1CCNCC1` [Example 10], 100 to 1000 nM.
Under `CCOCc1nc2c(N)nc3ccccc3c2n1CC(C)(C)OCCCCN1CCN(CCN)CC1` [Example 11] stands 1000 to 10000 nM; under `CCOCc1nc2c(N)nc3ccccc3c2n1CC(C)(C)OCCCCn1cc(CO)nn1` [Example 13], 100 to 1000 nM.
On to `CCOCc1nc2c(N)nc3ccccc3c2n1CC(C)(C)OCCCCn1cc(CN)nn1` [Example 14], for which the EC50 fell in the range of 100 to 1000 nM.
With `CCNCc1nc2c(N)nc3ccccc3c2n1CC(C)(C)OCCCCN1CCN(C)CC1` [Example 18], the EC50 fell in the range of 1000 to 10000 nM.
The result for `CCOCc1nc2c(N)nc3ccccc3c2n1CC(C)(C)OC(=O)CN` [Example 19] reads less than 100 nM; that for `CCOCc1nc2c(N)nc3ccccc3c2n1CC(C)(C)OCCCCN1CCN(CC(C)(C)SC)CC1` [Example 27], 1000 to 10000 nM.
